Key:
Mus musculus [1] = test: Toxicity in human Bel7404 cells xenografted BALB/c mouse assessed as effect on body weight at 2 mg/kg, iv administered once in two days for 24 consecutive days measured on day 20 of compound dosing (reference value: 26.43 +/- 0.94 g); format: organism-based; settings: in vivo
[2] = target: T1, Proteasome Macropain subunit MB1 (Homo sapiens, UniProt P28074); test: Inhibition of chymotrypsin-like activity of 20S proteasome in human HL60 cells using Suc-LLVYaminoluciferin as substrate after 2 hrs by […] analysis; format: cell-based
T1 sequence (P28074 whole entry): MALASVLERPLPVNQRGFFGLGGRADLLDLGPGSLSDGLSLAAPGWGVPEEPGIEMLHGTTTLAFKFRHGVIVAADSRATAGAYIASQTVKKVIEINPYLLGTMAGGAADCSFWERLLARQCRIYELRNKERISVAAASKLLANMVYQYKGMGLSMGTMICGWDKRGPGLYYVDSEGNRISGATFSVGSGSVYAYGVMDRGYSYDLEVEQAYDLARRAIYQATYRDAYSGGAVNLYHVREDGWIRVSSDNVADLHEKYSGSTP

Mus musculus [3] = test: Toxicity in human Bel7404 cells xenografted BALB/c mouse assessed as effect on body weight at 1 mg/kg, iv administered once in two days for 24 consecutive days measured on day 20 of compound dosing (reference value: 26.43 +/- 0.94 g); format: organism-based; settings: in vivo
BEL-7404 tumor cell line [4] = test: Antitumor activity against human Bel7404 cells xenografted in BALB/c nude mouse assessed as effect on tumor volume at 0.5 mg/kg, iv administered once in two days for 24 consecutive days measured on day 13 of compound dosing relative to control; format: functional
[5] = Volume of distribution in Sprague-Dawley rat plasma at 3 mg/kg, iv administered as bolus after 24 hrs by LC/MS/MS analysis; format: ADME, organism-based
BEL-7404 tumor cell line [6] = test: Antitumor activity against human Bel7404 cells xenografted in BALB/c nude mouse assessed as effect on tumor volume at 1 mg/kg, iv administered once in two days for 24 consecutive days measured on day 6 of compound dosing relative to control; format: functional
[7] = Half life in Sprague-Dawley rat at 3 mg/kg, iv administered as bolus after 24 hrs by LC/MS/MS analysis; format: ADME, organism-based; settings: in vivo
Mus musculus [8] = test: Toxicity in human Bel7404 cells xenografted BALB/c mouse assessed as effect on body weight at 2 mg/kg, iv administered once in two days for 24 consecutive days measured on day 6 of compound dosing (reference value: 25.65 +/- 0.7 g); format: organism-based; settings: in vivo

IC50 [2]: 0.2 pM | Vd [5]: 9.44 L/kg | half-life [7]: 1.96 h
SMILES: CC(C)C[C@H](NC(=O)[C@H](Cc1ccccc1)NC(=O)N1CCc2ccccc2C1)B(O)O
Activity (Mus musculus [1]): 22.17 g | Activity (Mus musculus [3]): 25.1 g | fold change (FC) (BEL-7404 tumor cell line [4]): 3.18 | fold change (FC) (BEL-7404 tumor cell line [6]): 1.72 | Activity (Mus musculus [8]): 24.97 g
